Source: patent US9096591B2, “Tetracyclic compounds” (Medivation Technologies, Inc., priority 2007, dated 2015)
Where two headings read alike, the source gives them in different places.

How the values were obtained:
[1] = target: T1, human recombinant histamine H1 receptor (Homo sapiens, UniProt P35367); experiment: Histamine H1 radioligand binding ([3H]Pyrilamine); details: for inhibition at 0.03 µM: 0.03 μM compound; for inhibition at 0.1 µM: 0.1 μM compound; for inhibition at 0.01 µM: 10 nM (0.01 μM) compound
T1 construct: expressed in transfected cells; host or cells: CHO cells
In short: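 CHO-expressed receptor in modified Tris-HCl buffer (50 mM, pH 7.4; 2 mM MgCl2, 100 mM NaCl, 250 mM sucrose); bound ligand measured after filtration and washing.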

[2] = target: T2, human recombinant serotonin (5-Hydroxytryptamine) 5-HT6 receptor (Homo sapiens, UniProt P50406); experiment: Serotonin 5-HT6 radioligand binding ([3H]LSD); set-up: Inhibition of ligand binding, Ser. 5-HT6: concentration or dose not given beside the values; details: for Inhibition of ligand binding, Ser. 5-HT6: percent inhibition of specific binding
T2 construct: expressed in transfected cells; host or cells: human HeLa cells
Description: Receptor proteins were filtered and washed, the filters were then counted to determine [3H]LSD specifically bound. […] Biochemical assay results are presented as the percent inhibition of specific binding in Table 6.

[3] = target: T3, human recombinant serotonin (5-Hydroxytryptamine) 5-HT2A receptor (Homo sapiens, UniProt P28223); experiment: Serotonin 5-HT2A radioligand binding ([3H]Ketanserin); set-up: Inhibition of ligand binding, Ser. 5-HT2A: concentration or dose not given beside the values; details: for Inhibition of ligand binding, Ser. 5-HT2A: percent inhibition of specific binding
T3 construct: expressed in transfected cells; host or cells: CHO-K1 cells
Method: (§1) Compounds of the invention were incubated with 0.5 nM [^3H]Ketanserin for 60 minutes at 25° C. Non-specific binding was estimated in the presence of 1 μM Mianserin. Receptor proteins were filtered and washed, the filters were then counted to determine [^3H]Ketanserin specifically bound. […] Biochemical assay results are presented as the percent inhibition of specific binding in Table 6.

[4] = target: T4, human recombinant adrenergic α2B receptor (Homo sapiens, UniProt P18089); experiment: Adrenergic α2B radioligand binding ([3H]Rauwolscine); set-up: Inhibition of ligand binding, Adren. alpha2B: concentration or dose not given beside the values; details: for Inhibition of ligand binding, Adren. alpha2B: percent inhibition of specific binding
T4 construct: expressed in transfected cells; host or cells: CHO-K1 cells
T4 sequence (P18089 1-450): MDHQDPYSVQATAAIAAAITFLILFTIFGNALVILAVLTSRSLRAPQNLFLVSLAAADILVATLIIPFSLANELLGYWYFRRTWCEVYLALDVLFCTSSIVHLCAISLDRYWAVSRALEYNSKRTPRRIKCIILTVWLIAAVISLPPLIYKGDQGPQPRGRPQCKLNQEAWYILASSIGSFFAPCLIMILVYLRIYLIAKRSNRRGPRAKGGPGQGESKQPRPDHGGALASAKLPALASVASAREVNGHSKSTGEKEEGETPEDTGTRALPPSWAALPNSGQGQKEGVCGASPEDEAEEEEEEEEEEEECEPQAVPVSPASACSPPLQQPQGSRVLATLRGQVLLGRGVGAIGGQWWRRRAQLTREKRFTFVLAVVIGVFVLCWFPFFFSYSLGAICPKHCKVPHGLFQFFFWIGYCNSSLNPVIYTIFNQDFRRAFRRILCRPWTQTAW
Method: To evaluate in radioligand binding assays the activity of compounds of the invention, human recombinant adrenergic α2B receptor expressed in Chinese hamster ovary (CHO-K1) cells (Uhlen S et al. Eur J. Pharmacol. 343(1):93, 1998) in a modified Tris-HCl buffer (50 mM Tris-HCl, pH 7.4, 12.5 mM MgCl2, 1 mM EDTA, 0.2% BSA) was used. Compounds of the invention were incubated with 2.5 nM [^3H]Rauwolscine for 60 minutes at 25° C. Non-specific binding was estimated in the presence of 10 μM Prozosin. Receptor proteins were filtered and washed, the filters were then counted to determine [^3H]Rauwolscine specifically bound. […] Biochemical assay results are presented as the percent inhibition of specific binding in Table 6.

[5] = target: T5, human recombinant serotonin (5-Hydroxytryptamine) 5-HT2C receptor (Homo sapiens, UniProt P28335); experiment: Serotonin 5-HT2C radioligand binding ([3H]Mesulergine); set-up: Inhibition of ligand binding, Ser. 5-HT2C: concentration or dose not given beside the values; details: for Inhibition of ligand binding, Ser. 5-HT2C: percent inhibition of specific binding
T5 construct: expressed in transfected cells; host or cells: CHO-K1 cells
T5 sequence (P28335 33-458): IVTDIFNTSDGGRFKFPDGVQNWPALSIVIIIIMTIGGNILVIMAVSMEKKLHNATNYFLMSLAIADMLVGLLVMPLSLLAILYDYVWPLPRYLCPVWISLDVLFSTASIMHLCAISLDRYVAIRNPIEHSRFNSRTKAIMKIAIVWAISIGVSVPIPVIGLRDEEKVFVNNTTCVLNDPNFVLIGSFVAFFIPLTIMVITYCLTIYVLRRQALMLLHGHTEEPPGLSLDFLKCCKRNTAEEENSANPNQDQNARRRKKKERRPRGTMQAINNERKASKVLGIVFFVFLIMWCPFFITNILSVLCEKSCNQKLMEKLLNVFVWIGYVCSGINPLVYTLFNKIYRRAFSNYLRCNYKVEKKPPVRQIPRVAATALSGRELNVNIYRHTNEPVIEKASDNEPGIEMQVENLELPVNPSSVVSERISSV
Method: as §1, with “1” for “0.5”, “[^3H]Mesulergine” for “[^3H]Ketanserin”

[6] = target: T6, human recombinant dopamine D2L receptor (Homo sapiens, UniProt P14416); experiment: Dopamine D2L radioligand binding ([3H]Spiperone); details: for Inhibition of ligand binding, Dop. D2L: percent inhibition of specific binding
T6 construct: expressed in transfected cells; host or cells: CHO cells
Method: Non-specific binding was estimated in the presence of 10 μM Haloperidol. Receptor proteins were filtered and washed, the filters were then counted to determine [^3H]Spiperone specifically bound. […] Biochemical assay results are presented as the percent inhibition of specific binding in Table 6.

[7] = […] [3H]Pyrilamine, read-out: Histamine Binding H1, percent inhibition of specific binding
[8] = 1 μM compound, […] [3H]Pyrilamine, read-out: Histamine Binding H1, percent inhibition of specific binding
[9] = percent inhibition of specific binding, screened at 1 μM, read-out: Inhibition of ligand binding, Hist. H1

T2 sequence (P50406 whole entry): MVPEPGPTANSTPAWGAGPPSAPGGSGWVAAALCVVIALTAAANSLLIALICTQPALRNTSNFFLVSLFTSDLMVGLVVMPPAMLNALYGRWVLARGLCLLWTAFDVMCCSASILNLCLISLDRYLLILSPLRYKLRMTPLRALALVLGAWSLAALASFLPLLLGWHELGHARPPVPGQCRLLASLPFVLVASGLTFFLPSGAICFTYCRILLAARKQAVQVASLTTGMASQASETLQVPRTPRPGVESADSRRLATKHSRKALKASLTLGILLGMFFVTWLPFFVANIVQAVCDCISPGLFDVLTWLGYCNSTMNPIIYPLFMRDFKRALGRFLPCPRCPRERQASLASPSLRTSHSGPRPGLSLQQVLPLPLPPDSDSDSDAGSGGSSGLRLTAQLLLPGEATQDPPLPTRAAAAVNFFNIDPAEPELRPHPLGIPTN
T3 sequence (P28223 whole entry): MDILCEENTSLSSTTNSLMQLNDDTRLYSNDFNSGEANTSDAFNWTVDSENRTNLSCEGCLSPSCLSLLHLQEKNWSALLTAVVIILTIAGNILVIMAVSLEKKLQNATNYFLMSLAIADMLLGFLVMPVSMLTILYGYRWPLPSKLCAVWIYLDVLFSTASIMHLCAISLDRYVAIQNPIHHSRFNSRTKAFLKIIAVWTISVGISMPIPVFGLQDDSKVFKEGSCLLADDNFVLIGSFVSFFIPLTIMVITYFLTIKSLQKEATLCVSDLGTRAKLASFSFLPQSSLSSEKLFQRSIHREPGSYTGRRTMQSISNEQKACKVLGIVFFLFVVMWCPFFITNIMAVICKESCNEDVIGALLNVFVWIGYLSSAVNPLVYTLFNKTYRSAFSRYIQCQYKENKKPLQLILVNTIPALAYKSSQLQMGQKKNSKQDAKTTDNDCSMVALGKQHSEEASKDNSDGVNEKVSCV
T1 sequence (P35367 whole entry): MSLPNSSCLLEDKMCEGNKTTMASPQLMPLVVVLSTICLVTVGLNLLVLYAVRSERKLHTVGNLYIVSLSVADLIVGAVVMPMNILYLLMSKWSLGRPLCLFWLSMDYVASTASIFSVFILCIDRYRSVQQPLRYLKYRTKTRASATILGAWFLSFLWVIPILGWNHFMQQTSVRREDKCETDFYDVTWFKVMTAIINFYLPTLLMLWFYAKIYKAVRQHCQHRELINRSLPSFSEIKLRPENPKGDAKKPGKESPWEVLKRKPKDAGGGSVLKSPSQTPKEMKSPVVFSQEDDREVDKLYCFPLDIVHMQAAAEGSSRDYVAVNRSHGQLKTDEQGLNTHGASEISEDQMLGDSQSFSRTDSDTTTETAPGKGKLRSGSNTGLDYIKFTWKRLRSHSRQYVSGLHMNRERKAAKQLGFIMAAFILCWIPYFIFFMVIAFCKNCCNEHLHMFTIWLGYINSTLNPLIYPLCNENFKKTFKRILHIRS
T6 sequence (P14416 whole entry): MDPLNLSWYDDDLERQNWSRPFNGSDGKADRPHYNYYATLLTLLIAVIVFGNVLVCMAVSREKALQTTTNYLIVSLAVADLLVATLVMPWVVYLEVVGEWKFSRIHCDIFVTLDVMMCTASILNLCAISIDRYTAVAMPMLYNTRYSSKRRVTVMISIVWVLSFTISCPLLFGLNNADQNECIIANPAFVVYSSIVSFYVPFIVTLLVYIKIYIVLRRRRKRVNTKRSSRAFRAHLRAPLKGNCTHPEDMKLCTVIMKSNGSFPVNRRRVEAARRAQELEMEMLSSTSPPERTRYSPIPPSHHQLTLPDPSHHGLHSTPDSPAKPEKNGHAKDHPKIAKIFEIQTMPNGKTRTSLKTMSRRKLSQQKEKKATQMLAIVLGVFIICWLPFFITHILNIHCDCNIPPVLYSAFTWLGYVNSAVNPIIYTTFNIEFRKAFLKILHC

Row | SMILES | inhibition at 1 µM ([1]; compounds screened at 1 μM, read-out: Inhibition of ligand binding, Hist. H1 (percent inhibition of specific binding)) [%] | inhibition at 1 µM ([2]; compounds screened at 1 μM, read-out: Inhibition of ligand binding, Ser. 5-HT6 (percent inhibition of specific binding)) [%] | inhibition at 1 µM ([3]; read-out: Inhibition of ligand binding, Ser. 5-HT2A (percent inhibition of specific binding)) [%] | inhibition at 1 µM ([4]; compounds screened at 1 μM, read-out: Inhibition of ligand binding, Adren. alpha2B (percent inhibition of specific binding)) [%] | inhibition at 1 µM ([5]; compounds screened at 1 μM, read-out: Inhibition of ligand binding, Ser. 5-HT2C (percent inhibition of specific binding)) [%] | inhibition at 1 µM ([6]; compounds screened at 1 μM, read-out: Inhibition of ligand binding, Dop. D2L (percent inhibition of specific binding)) [%] | inhibition at 0.03 µM [1, 7] [%] | inhibition at 0.1 µM [1, 7] [%] | inhibition at 1 µM [1, 8] [%] | inhibition at 1 µM [1, 9] [%] | Inhibition of ligand binding, Ser. 5-HT6 [2] [%] | Inhibition of ligand binding, Ser. 5-HT2A [3] [%] | Inhibition of ligand binding, Ser. 5-HT2C [5] [%] | Inhibition of ligand binding, Dop. D2L [6] [%] | Inhibition of ligand binding, Adren. alpha2B [4] [%] | inhibition at 0.004 µM ([1]; 4 nM compound, […] [3H]Pyrilamine, read-out: Histamine Binding H1, percent inhibition of specific binding) [%] | inhibition at 0.02 µM ([1]; 0.02 μM compound, […] [3H]Pyrilamine, read-out: Histamine Binding H1, percent inhibition of specific binding) [%] | inhibition at 0.01 µM [1, 7] [%]
1 | CN1CCc2c(c3ccncc3n2CCc2ccccn2)C1 [Compound 481, 7-aza-2-methyl-5-(2-(pyridin-2-yl)ethyl)-2,3,4,5-tetrahydro-1H-pyrido[4,3-b]indole] | 4 | 14 | 27 | 19 | 20 | 16 | – | – | – | – | – | – | – | – | – | – | – | –
2 | Cc1ccc(CCn2c3c(c4ccccc42)CN(C)CC3)cc1 [Compound 1, 2,3,4,5-tetrahydro-2-methyl-5-(4-methylphenethyl)-1H-pyrido[4,3-b]indole] | – | – | – | – | – | – | 32 | 56 | 91 | 91 | 87 | 95 | 95 | 62 | – | – | – | –
3 | CN1CCc2c(c3cc(Cl)ccc3n2CC(=O)N2CCSCC2)C1 [Compound 239, 2-(8-chloro-1,2,3,4-tetrahydro-2-methylpyrido[4,3-b]indol-5-yl)-1-thiomorpholinoethanone] | – | – | – | – | – | – | – | – | 50 | 50 | 8 | – | 65 | −1 | 24 | – | – | –
4 | CN1CCc2c(c3cc(Cl)ccc3n2CC(=O)N2CCCC2)C1 [Compound 243, 2-(8-chloro-1,2,3,4-tetrahydro-2-methylpyrido[4,3-b]indol-5-yl)-1-(pyrrolidin-1-yl)ethanone] | – | – | – | – | – | – | – | – | 84 | 84 | 12 | – | 33 | 8 | 6 | – | – | –
5 | Cc1ccc2c(c1)c1c(n2CCc2ccccc2)CCN(C)C1 [Compound 20, 2,3,4,5-tetrahydro-2,8-dimethyl-5-phenethyl-1H-pyrido[4,3-b]indole] | – | – | – | – | – | – | – | 93 | 97 | 97 | – | 98 | 98 | 87 | 108 | 34 | 73 | –
6 | CN1CCc2c(c3cc(Cl)ccc3n2CC(=O)N2CCCCC2)C1 [Compound 236, 2-(8-chloro-1,2,3,4-tetrahydro-2-methylpyrido[4,3-b]indol-5-yl)-1-(piperidin-1-yl)ethanone] | – | – | – | – | – | – | – | – | 42 | 42 | 18 | – | 54 | 1 | 9 | – | – | –
7 | CN1CCc2c(c3cc(Cl)ccc3n2CCC(=O)N2CCCC2)C1 [Compound 240, 3-(8-chloro-1,2,3,4-tetrahydro-2-methylpyrido[4,3-b]indol-5-yl)-1-(pyrrolidin-1-yl)propan-1-one] | – | – | – | – | – | – | – | – | 60 | 60 | 25 | – | 27 | 9 | 50 | – | – | –
8 | Cc1ccc2c(c1)c1c(n2CCc2ccccc2F)CCN(C)C1 [Compound 34, 5-(2-fluorophenethyl)-2,3,4,5-tetrahydro-2,8-dimethyl-1H-pyrido[4,3-b]indole] | – | – | – | – | – | – | – | 67 | 96 | 96 | 104 | 99 | 96 | 88 | – | – | – | 22
9 | CN1CCc2c(c3cc(Cl)ccc3n2CC(=O)N2CCNC(=O)C2)C1 [Compound 246] | – | – | – | – | – | – | – | – | 18 | 18 | 2 | – | 59 | 1 | 11 | – | – | –
10 | CC1CN(C(=O)Cn2c3c(c4cc(Cl)ccc42)CN(C)CC3)CC(C)N1 (centres unmarked) [Compound 245] | – | – | – | – | – | – | – | – | 22 | 22 | −2 | – | 20 | 4 | 19 | – | – | –
11 | CN1CCc2c(c3cc(Cl)ccc3n2CC(=O)N2CCNCC2)C1 [Compound 244] | – | – | – | – | – | – | – | – | 15 | 15 | 13 | – | 22 | 6 | 13 | – | – | –
12 | Cc1ccc2c(c1)c1c(n2CCc2ccncc2)CCN(C)C1 [Compound 22, 2,3,4,5-tetrahydro-2,8-dimethyl-5-(2-(pyridin-4-yl)ethyl)-1H-pyrido[4,3-b]indole] | – | – | – | – | – | – | 63 | – | 100 | 100 | – | 81 | 87 | 27 | 105 | – | – | 36
13 | CC1CCCCN1C(=O)Cn1c2c(c3cc(Cl)ccc31)CN(C)CC2 (centres unmarked) [Compound 321, 2-(8-chloro-1,2,3,4-tetrahydro-2-methylpyrido[4,3-b]indol-5-yl)-1-(2-methylpiperidin-1-yl)ethanone] | – | – | – | – | – | – | – | – | – | 50 | 15 | – | 61 | −1 | 25 | – | – | –
